From patent US20150368220A1, “PHARMACEUTICAL COMPOSITION FOR TREATING OR PREVENTING STRESS URINARY INCONTINENCE OR MIXED URINARY INCONTINENCE, AND METHOD FOR SCREENING COMPOUND COMPRISED IN SAID PHARMACEUTICAL COMPOSITION” (Astellas Pharma Inc., priority 2012, published 2015)

Columns and labels:
SD female rat [1] = experiment: Effect on urethral pressure, perfusion method (Example 4); format: in vivo
Protocol: An SD female rat was anesthetized with urethane and allowed to undergo laparotomy, the bladder dome was then incised, and a catheter having a barb at the tip was inserted toward the urethra from the bladder, and ligated and fixed such that the tip of the catheter was positioned around the proximal urethra. Physiological saline was injected at a predetermined flow rate into the urethra through the catheter and the urethral pressure was measured with a pressure transducer. After the urethral pressure was stabilized, compounds dissolved in physiological saline, or physiological saline containing 5% N,N-dimethylacetamide(DMA) and 0.5% Cremophor were intravenously administered at a dose of 1 μg/kg, 10 μg/kg, 100 μg/kg, or 1000 μg/kg and a change in the urethral pressure was measured.

human MT1 receptor [2] = target: T1, human MT1 receptor (Homo sapiens, UniProt P48039); experiment: Intracellular Ca2+ concentration by FLIPR in human MT1 receptor expressing cells (Example 2); format: cell-based; conditions: human MT1 receptor expressing HEK293 cells, 10^-5 M to 10^-12 M, FIGS. 2 and 4
T1 construct: expressed in transfected cells; vector pCDNA3.1/Zeo; co-transfected with a Gq/i chimeric G protein expression vector
T1 sequence (P48039 whole entry): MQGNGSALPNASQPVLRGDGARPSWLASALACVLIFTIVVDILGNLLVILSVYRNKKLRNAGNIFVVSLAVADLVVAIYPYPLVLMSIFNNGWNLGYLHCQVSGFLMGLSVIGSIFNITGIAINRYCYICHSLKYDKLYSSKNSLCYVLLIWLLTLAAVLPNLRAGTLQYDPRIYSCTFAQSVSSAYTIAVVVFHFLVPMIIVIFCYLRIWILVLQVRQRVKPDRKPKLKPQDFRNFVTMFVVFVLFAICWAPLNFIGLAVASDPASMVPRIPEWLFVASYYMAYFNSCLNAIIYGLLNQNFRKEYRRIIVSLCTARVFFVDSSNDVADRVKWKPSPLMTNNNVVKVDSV
Protocol: (§1) The expression vectors for human MT1 and MT2 receptors were introduced into HEK293 cells, together with a Gq/i chimeric G protein expression vector, respectively. The incorporation was carried out in accordance with instructions, using a Lipofectoamine (registered trademark) 2000 Reagent (Invitrogen Inc.). Using Zeocin and hygromycin as a resistant agent, the cells were cultured for 15 days in the presence of 0.02 mg/mL and 0.05 mg/mL of the agents, respectively, thereby acquiring a drug-resistant clone.
(§2) The respective stably expressing cells were dispensed into 96 wells in a poly-D-lysine-coated plate (Falcon) the day before the experiment to give 40,000 cells/well, and cultured in a DMEM (Invitrogen Inc.) medium containing 10% FBS at 37° C. and 5% CO2 overnight. The medium was replaced with a loading buffer (a washing solution containing 4 μM Fluo-4AM (Dojindo Co.) (Hank's balanced salt solution (HBSS), 20 mM HEPES-NaOH, 2.5 mM probenecid)) and cultured at 37° C. and 5% CO2 for 1 hour.

human MT2 receptor [3] = target: T2, human MT2 receptor (Homo sapiens, UniProt P49286); experiment: Intracellular Ca2+ concentration by FLIPR in human MT2 receptor expressing cells (Example 2); format: cell-based; conditions: human MT2 receptor expressing HEK293 cells, 10^-5 M to 10^-12 M, FIGS. 3 and 5
T2 construct: expressed in transfected cells; vector pCDNA3.1/Zeo; co-transfected with a Gq/i chimeric G protein expression vector
T2 sequence (P49286 1-362): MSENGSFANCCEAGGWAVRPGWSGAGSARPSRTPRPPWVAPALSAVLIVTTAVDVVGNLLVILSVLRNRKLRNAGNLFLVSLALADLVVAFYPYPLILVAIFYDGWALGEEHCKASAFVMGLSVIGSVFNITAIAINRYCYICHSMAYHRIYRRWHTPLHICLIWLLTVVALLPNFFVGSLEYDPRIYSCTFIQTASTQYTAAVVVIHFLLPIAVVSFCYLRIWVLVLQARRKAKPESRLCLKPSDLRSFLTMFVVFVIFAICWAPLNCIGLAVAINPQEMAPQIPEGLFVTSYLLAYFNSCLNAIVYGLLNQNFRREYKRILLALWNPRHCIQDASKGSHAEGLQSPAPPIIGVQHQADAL
Protocol: as §1, §2

isolated urethra [4] = experiment: Urethra contracting action using isolated urethra (Example 3); conditions: isolated urethra of SD female rat, cumulative 10^-5 M to 10^-12 M, FIGS. 6 and 7
Protocol: The urethra was isolated from an SD female rat having a body weight of 100 g to 500 g. The isolated urethra was incised vertically and then made into strip-shaped specimens having a width of about 3 mm. The specimens were suspended in a 10 mL tissue bus filled with a Krebs—Henseleit solution (pH 7.4) in the circular muscle direction. The Krebs—Henseleit solution was aerated at 95% O2 and 5% CO2, and warmed at 37° C. The resting tension was set to 0.5 g and the isometric contraction was recorded. After the resting tension was stabilized, a 10 μM phenylephrine solution was added thereto to cause contraction.

human MT1 receptor [5] = target: T1, human MT1 receptor; experiment: Effect of luzindole on ramelteon-induced intracellular Ca2+ increase in human MT1 receptor expressing cells (Example 5); format: cell-based; conditions: for intracellular Ca^2+ concentration increasing action: action by 10^-6 M ramelteon = 100%
Protocol: (§3) The respective stably expressing cells were dispensed into 96 wells in a poly-D-lysine-coated plate (Falcon) the day before the experiment to give 40,000 cells/well, and cultured in a DMEM (Invitrogen Inc.) medium containing 10% FBS at 37° C. and 5% CO2 overnight. The medium was replaced with a loading buffer (a washing solution containing 4 μM Fluo-4AM (Dojindo Co.) (Hank's balanced salt solution (HBSS), 20 mM HEPES-NaOH, 2.5 mM probenecid)) and cultured at 37° C. and 5% CO2 for 1 hour. Thereafter, the cells were washed with a plate washer (EL×405, BIO-TEK Instrument Inc.) having a washing solution set therein, and set in an intracellular Ca concentration measuring system (FLIPR (registered trademark), Molecular Device Inc.). Luzindole was preliminarily dissolved in a washing solution, diluted to a final concentration of 10^−5 M to 10^−7 M, and left to stand at room temperature for 5 minutes. Ramelteon was preliminarily dissolved in a washing solution and diluted to a final concentration of 10^−5 M to 10^−11 M, the resultant was set in an FLIPR (registered trademark) device together with the cells after leaving to stand for 5 minutes after the addition of luzindole, the cells were added to the device, and a change in the intracellular Ca^2+ concentration at that time was measured.

human MT2 receptor [6] = target: T2, human MT2 receptor; experiment: Effect of luzindole on ramelteon-induced intracellular Ca2+ increase in human MT2 receptor expressing cells (Example 5); format: cell-based; conditions: for intracellular Ca^2+ concentration increasing action: action by 10^-6 M ramelteon = 100%
Protocol: as §3

isolated urethra [7] = experiment: Effect of luzindole on urethra contracting action of ramelteon in isolated urethra (Example 5); set-up: species or system rat; conditions: for isolated urethra contracting action: contraction by 1 μM ramelteon at first time = 100%
Protocol: The urethra was isolated from an SD female rat having a body weight of 100 g to 500 g. The isolated urethra was incised vertically and then made into strip-shaped specimens having a width of about 3 mm. The specimens were suspended in a 10 mL tissue bus filled with a Krebs-Henseleit solution (pH 7.4) in the circular muscle direction or the longitudinal muscle direction. […] The resting tension was set to 0.5 g and the isometric contraction was recorded. After the resting tension was stabilized, a 10 μM phenylephrine solution was added thereto to cause contraction. After washing and stabilizing, the compound (ramelteon) was cumulatively added to a final concentration of 10^−5 M to 10^−12 M and the contraction response was measured. After washing and stabilizing, luzindole was added, after 20 minutes, ramelteon was cumulatively added again, and the contraction response was measured.

SD female rat [8] = experiment: Effect on urethral pressure, microchip method (Example 4); format: in vivo; conditions: intravenous, anesthetized SD female rat, FIGS. 8 and 9
Excerpt: An SD female rat was anesthetized with urethane and allowed to undergo laparotomy, and then a catheter was mounted in the bladder dome for urine leakage in the bladder. Further, a catheter was mounted in the femoral vein for the administration of a compound and a catheter was mounted in the carotid artery for the measurement of blood pressure described in Example 6 as described later. […] The catheter mounted in the carotid artery was attached to a pressure transducer and the blood pressure was measured.

isolated bladder = experiment: Isolated bladder contraction (Example 6); conditions: isolated bladder of SD female rat, cumulative addition
Excerpt: (§4) (1) The bladder and uterus were isolated from an SD female rat having a body weight of 100 g to 500 g. For the isolated bladder, the parts below the parietal region and the triangular portion were resected to make only the body portion into a ring state, and further, one side of the tissue in the ring state was cut to a band-shaped tissue. The bladder in the band shape was isolated parallel to the median axis of the bladder to prepare strip-shaped specimens having a length of about 10 mm and a width of about 3 mm. The specimens were suspended in a 10 mL tissue bus filled with a Krebs-Henseleit solution (pH 7.4) at a resting tension of 0.5 g and the isometric contraction was recorded. For the isolated uterus, the edge portion of the uterus was cut and incised vertically, whereby a strip-shaped specimen having a width of about 6 mm was then prepared. The specimens were suspended in a 10 mL tissue bus filled with a Krebs—Henseleit solution (pH 7.4) at a resting tension of 0.5 g and the isometric contraction was recorded. […] For the bladder specimen, after the resting tension was stabilized, a 60 mM KCl solution or a 10 μM carbachol solution was added thereto to cause contraction. The specimens were washed and stabilized, and then the compounds were cumulatively administered.

isolated uterus = experiment: Isolated uterus contraction (Example 6); conditions: isolated uterus of SD female rat, cumulative 10^-5 M to 10^-11 M
Excerpt: as §4

SD female rat [9] = experiment: Effect on rat blood pressure (Example 6); format: in vivo; conditions: intravenous, at a dose for increasing the urethral pressure, FIGS. 21 and 22
Excerpt: An SD female rat was anesthetized with urethane and allowed to undergo laparotomy, and then a catheter was mounted in the bladder dome for urine leakage in the bladder. Further, a catheter was mounted in the femoral vein for the administration of a compound and a catheter was mounted in the carotid artery for the measurement of blood pressure described in Example 6 as described later. A microchip transducer catheter (Milar Instruments) was inserted toward the bladder from the external urethral meatus for the measurement of the urethral pressure, and fixed such that the transducer portion was positioned around the portion at which the urethral pressure was maximized (10.0 mm to 15.0 mm from the external urethral meatus). The catheter mounted in the carotid artery was attached to a pressure transducer and the blood pressure was measured.
(2) In the experiment for measuring the urethral pressure in Example 4, the blood pressure was measured simultaneously. After the urethral pressure and the blood pressure were stabilized, the compound was administered and a change in the blood pressure was measured.

[10] = intravenous, anesthetized SD female rat, FIGS. 10 to 14
[11] = final concentration of ramelteon 10^-5 M

In the case of `COc1ccc(OC)c(C(O)CN)c1` (stereo not shown) [ST-1059], the “urethral pressure increasing action” value (SD female rat [1]; rat, dose 0.01 mg/kg) is reported as 4.9±1.1 mmHg.
In the case of `COc1cc2c([C@@H](C)CNC(C)=O)c[nH]c2cc1Cl` [TIK-301, N-[(2R)-2-(6-chloro-5-methoxy-1H-indol-3-yl)propyl]acetamide], the “intracellular Ca^2+ concentration (melatonin receptor activating action)” value (human MT1 receptor [2]) is reported as “increased”, the “intracellular Ca^2+ concentration (melatonin receptor activating action)” value (human MT2 receptor [3]) is reported as “increased” and the urethra contracting action (isolated urethra [4]) is reported as “contracted the isolated urethra”. For the same molecule, the “urethral pressure increasing action” value (SD female rat [1]; [10]) was “increased the urethral pressure”.
In the case of `COc1ccc2cccc(CCNC(C)=O)c2c1` [agomelatine, N-[2-(7-methoxynaphth-1-yl)ethyl]acetamide], the “intracellular Ca^2+ concentration (melatonin receptor activating action)” value (human MT1 receptor [2]) is reported as “increased”, the “intracellular Ca^2+ concentration (melatonin receptor activating action)” value (human MT2 receptor [3]) is reported as “increased” and the urethra contracting action (isolated urethra [4]) is reported as “contracted the isolated urethra”. For the same molecule, the “urethral pressure increasing action” value (SD female rat [1]; [10]) was “increased the urethral pressure”.
For `CC(=O)NCCc1c(Cc2ccccc2)[nH]c2ccccc12` [luzindole, N-[2-[2-(phenylmethyl)-1H-indol-3-yl]ethyl]acetamide], the “inhibition of the increase in intracellular Ca^2+ concentration by ramelteon” value (human MT1 receptor [5]; MT1 receptor expressing cells, FIG. 15) was “inhibited”, the “intracellular Ca^2+ concentration increasing action” value (human MT1 receptor [5]; MT1 receptor expressing cells, ramelteon 10^-5 M with 10^-5 M luzindole) was 94% and the “intracellular Ca^2+ concentration increasing action” value (human MT1 receptor [5]; MT1 receptor expressing cells, ramelteon 10^-5 M with 10^-6 M luzindole) was 97%. The “intracellular Ca^2+ concentration increasing action” value (human MT1 receptor [5]; MT1 receptor expressing cells, ramelteon 10^-5 M with 10^-7 M luzindole) was 100%, the “inhibiting action on the MT1 receptor” value (human MT1 receptor [5]; [11]) was “substantially did not exhibit an inhibiting action” and the “inhibition of the increase in intracellular Ca^2+ concentration by ramelteon” value (human MT2 receptor [6]; MT2 receptor expressing cells, FIG. 16) was “inhibited”. The “intracellular Ca^2+ concentration increasing action” value (human MT2 receptor [6]; MT2 receptor expressing cells, ramelteon 10^-5 M with 10^-5 M luzindole) was 52%, the “intracellular Ca^2+ concentration increasing action” value (human MT2 receptor [6]; MT2 receptor expressing cells, ramelteon 10^-5 M with 10^-6 M luzindole) was 60% and the “intracellular Ca^2+ concentration increasing action” value (human MT2 receptor [6]; MT2 receptor expressing cells, ramelteon 10^-5 M with 10^-7 M luzindole) was 62%. For the same molecule, the “inhibiting action, MT2 versus MT1 receptor expressing cells” value (human MT2 receptor [6]; comparison of MT2 and MT1 receptor expressing cells) was “stronger in the MT2 receptor expressing cells than in the MT1 receptor expressing cells”, the “inhibiting action on isolated urethra contracting action” value (isolated urethra [7]; [11]) was “substantially did not exhibit an inhibiting action” and the “isolated urethra contracting action” value (isolated urethra [7]; ramelteon 10^-5 M with 10^-5 M luzindole) was 78%. For the same molecule, the “isolated urethra contracting action” value (isolated urethra [7]; ramelteon 10^-5 M with 10^-6 M luzindole) was 94%, the “isolated urethra contracting action” value (isolated urethra [7]; ramelteon 10^-5 M with 10^-7 M luzindole) was 101% and the “inhibition of isolated urethra contracting action by ramelteon” value (isolated urethra [7]; treatment with luzindole 10^-7 M to 10^-5 M, FIG. 17) was “inhibited in a concentration-dependent manner”.
With `COc1ccc2[nH]cc(CCNC(C)=O)c2c1` [melatonin] the urethra contracting action (isolated urethra [4]) was “contracted the isolated urethra”, the “urethral pressure increasing action” value (SD female rat [8]) was “increased the urethral pressure” and the “urethral pressure increasing action” value (SD female rat [1]; [10]) was “increased the urethral pressure”. The “contraction action on the isolated bladder” value (isolated bladder) was “did not exhibit a contraction action”, the “contraction action on the isolated uterus” value (isolated uterus) was “did not exhibit a contraction action” and the “effect on blood pressure (mean blood pressure)” value (SD female rat [9]) was “did not increase the blood pressure”.
With `CCC(=O)NC[C@@H]1C[C@H]1c1cccc2c1CCO2` [tasimelteon, (−)-(trans)-N-{[2-(2,3-dihydrobenzofuran-4-yl)cyclopropan-l-yl]methyl}propanamide] the “intracellular Ca^2+ concentration (melatonin receptor activating action)” value (human MT1 receptor [2]) was “increased”, the “intracellular Ca^2+ concentration (melatonin receptor activating action)” value (human MT2 receptor [3]) was “increased” and the urethra contracting action (isolated urethra [4]) was “contracted the isolated urethra”. For the same molecule, the “urethral pressure increasing action” value (SD female rat [1]; [10]) was “increased the urethral pressure”.
